One data set relates to ccRCC TGs. Briefly: PT2399 in RCC tumorgraft (patient-derived xenograft) platform. In kind it is in vivo, mice. As for the experimental part:
(§1) This compound was evaluated in over 250 mice implanted with RCCs from 22 patients. […] This was also observed clinically.
Tumor samples collected fresh from kidney cancer surgeries were implanted orthotopically (in the kidney) of immunocompromised mice (NOD/SCID) within 3 hours. The samples were implanted without disaggregation or any additives, and it was previously shown that these tumorgrafts retained the histology, gene expression, DNA copy number alterations, mutations, and treatment responsiveness of the patient tumors. This platform of human RCC tumorgraft models was used to validate HIF-2α as a target in ccRCC (FIGS. 1 and 2). […] This same platform was used to evaluate the uptake of [^11C]PT2385 by ccRCC tumorgrafts expressing HIF-2α by PET imaging.

A short description of data set [1]: Tolerance (body weight) of tumorgraft-bearing mice. In kind it is in vivo. The settings on record: sunitinib at doses reproducing patient exposures. Here is the method:
as §1

In a further data set the test system is ccRCC. Briefly: Phase 1 clinical trial in patients with ccRCC. In kind it is in vivo. The text has this:
The drug was remarkably well tolerated and a maximal tolerated dose (MTD) was not reached. […] The drug was also highly specific, and high-grade adverse effects were on-target, and expected, such as anemia (HIF-2 is known to regulate erythropoietin, and the effect could be overcome by exogenous erythropoietin administration). While the patient cohort evaluated had been extensively pretreated (typically ≥4 prior lines), activity of the inhibitor was still observed. Among 51 patients treated in the study at various dose levels, there was 1 complete response (CR), 6 partial response (PR), and 13 patients who remained on the study without progression beyond a year (FIG. 5). Overall, 42% of patients remained without progression for at least 4 months. […] Those data illustrated that even in highly pretreated RCC patients the HIF-2 Inhibitor was able to remain active.
The Phase I trial was accompanied by a companion study involving imaging and tissue acquisition.

Where [2] appears, read: among 51 patients, various dose levels.

Molecules are shown by their SMILES. “Also recorded” adds a separate entry of the source.

As to `N#Cc1cc(F)cc(Oc2ccc(S(=O)(=O)C(F)F)c3c2CC(F)(F)[C@H]3O)c1` [PT2399], the “ccRCC tumorgrafts responsive (sensitive lines)” value in the data set on ccRCC TGs (RCCs from 22 patients, over 250 mice) is listed as “approximately 50%”. In the data set on ccRCC TGs (of all 22 tumorgraft lines), the “number of intermediate tumorgraft lines” value was 5, the “number of resistant tumorgraft lines” value turned out to be 7 and the “number of sensitive tumorgraft lines” value is given as 10. For the same compound, the “activity compared with sunitinib” value with ccRCC TGs (tumorgraft growth, sunitinib standard of care at the time) is listed as “more active than Sunitinib; also recorded: more effective than sunitinib”. Moreover, the “body weight change of treated mice” value in data set [1] is reported as “did not”.

Consider `CCN(CC)CCNC(=O)c1c(C)[nH]c(/C=C2\C(=O)Nc3ccc(F)cc32)c1C` [sunitinib], for which the “body weight change of treated mice” value in data set [1] is listed as “lost weight”.

For the compound `CS(=O)(=O)c1ccc(Oc2cc(F)cc(C#N)c2)c2c1[C@H](O)C(F)(F)C2` [PT2385], in the data set with ccRCC (setting [2]), the “complete response (CR), number of patients” value came out at 1; the “partial response (PR), number of patients” value is recorded as 6; the “patients remaining on study without progression beyond a year” value worked out at 13. In addition, the “serious adverse effects requiring treatment discontinuation” value in the data set with ccRCC (any patient) is given as “no serious adverse effects requiring treatment discontinuation”. The “maximal tolerated dose (MTD)” value in the data set on ccRCC (dose escalation and dose expansion cohorts) is “not reached”. For the same compound, in the data set on ccRCC (human, in vivo), the dose-limiting toxicities entry is recorded as “no dose-limiting toxicities” and the “high-grade adverse effects (on-target)” value is reported as “anemia”. Moreover, the “patients without progression for at least 4 months” value with ccRCC (overall) came to 42%. Besides, the “activity in HIF-2α deficient tumors” value in the data set on ccRCC (preliminary studies of patient tumor samples) is “no activity”.

Source of the values: US20210187130A1, “PET RADIOPHARMACEUTICALS FOR NON-INVASIVE EVALUATION OF HIF-2alpha” (THE BOARD OF REGENTS OF THE UNIVERSITY OF TEXAS SYSTEM, priority 2019, published 2021).
